Measured values taken from patent US4087432A, “1H-imidazo(4,5-b)pyridine compounds” (Eli Lilly and Company, priority 1975, dated 1978).

How the values were obtained:
Set-up in all cases: key: injury rating scale on which 4 = death
[1] = test system: Cotton; experiment: Preemergent injury rating, cotton; format: in vivo
Method: (§1) Various of the compounds to be employed as active agent in accordance with the present invention were evaluated for preemergent application to various species of plants. In this evaluation, a soil was prepared consisting of one part masonry sand and one part shredded top soil blended together in a cement mixer. One gallon of this soil was placed in a 25 × 35 cm. galvanized flat and was patted down with a bench brush until level. A three-row marker was used to make 21/2 cm. deep furrows in approximately two-fifths of the flat. Crop seeds consisting of four kernels of corn, five cotton seeds and five soybean seeds were placed in these furrows. A four-row template was then placed on the remaining soil and the indicated approximate numbers of each of the following seeds were planted, one species to each section: foxtail (millet), 80-100 seeds; velvetleaf (40-50 seeds); rough pigweed (150-250 seeds); and large crabgrass (100-150 seeds).
(§2) Sufficient soil was added to cover the entire flat. Thus, the weed seeds were covered to a depth of about 6 mm. and the crop seeds were covered to a depth of about 3 cm.
(§3) In assaying the effect of the composition as preemergent herbicides, a flat prepared as above, taken either on the day of planting or on the next day, was placed in a chamber equipped with a turntable and an air exhaust. The herbicidal composition, either a spray-type emulsion or a wettable powder, was applied to the flat with a modified DeVilbiss atomizer hooked to an air source. Twelve and one-half milliliters of the composition under test were applied to each flat either on the day of planting or the succeeding day. Injury ratings and observations as to type of injury were made eleven to twelve days after treatment. The injury rating scale used was as follows:
(§4) 4--death When more than one determination was carried out at a given rate, an average value was calculated for the injury rating. Each compound evaluated was formulated as a spray by one of the following procedures. In one method the particular compound was wetted by grinding in a mortar with one part of polyoxyethylene sorbitan monolaurate. Five hundred parts of water were added slowly to the resultant creamy paste to give an aqueous dispersion with a surfactant concentration of 0.2 percent. This dispersion was entirely satisfactory for spray application. In a second procedure the compound was dissolved in one volume of acetone, and the acetone solution was diluted with nineteen volumes of water containing 0.1 percent of polyoxyethylene sorbitan monolaurate.
(§5) In the following table setting forth the results of the evaluation, column 1 gives the name of the compound under test; column 2, the rate in pounds per acre at which the compound was applied to the test flat; and the remaining columns, the injury to the particular plant seeds or seedlings as measured by the foregoing scale.

[2] = test system: Velvet Leaf; experiment: Preemergent injury rating, velvetleaf; format: in vivo
Method: as §1, §2, §3, §4, §5

[3] = test system: Crabgrass; experiment: Preemergent injury rating, crabgrass; format: in vivo, large crabgrass
Method: as §1, §2, §3, §4, §5

[4] = test system: Pigweed; experiment: Preemergent injury rating, pigweed; format: in vivo, rough pigweed
Method: as §1, §2, §3, §4, §5

[5] = test system: Foxtail; experiment: Preemergent injury rating, foxtail; format: in vivo, foxtail (millet)
Method: as §1, §2, §3, §4, §5

[6] = test system: Corn; experiment: Preemergent injury rating, corn; format: in vivo
Method: as §1, §2, §3, §4, §5

[7] = test system: Soybean; experiment: Preemergent injury rating, soybean; format: in vivo
Method: as §1, §2, §3, §4, §5

Compound	Injury Rating, Cotton ([1]; 2 lbs/acre)	Injury Rating, Crabgrass ([3]; 2 lbs/acre)	Injury Rating, Crabgrass ([3]; 8 lbs/acre)	Injury Rating, Pigweed ([4]; 2 lbs/acre)	Injury Rating, Pigweed ([4]; 8 lbs/acre)	Injury Rating, Foxtail ([5]; 2 lbs/acre)	Injury Rating, Foxtail ([5]; 8 lbs/acre)	Injury Rating, Corn ([6]; 2 lbs/acre)	Injury Rating, Corn ([6]; 8 lbs/acre)	Injury Rating, Soybean ([7]; 2 lbs/acre)	also measured
On1c(C(F)(F)C(F)F)nc2nc(Cl)c(Cl)cc21 [1-hydroxy-5,6-dichloro-2-(1,1,2,2-tetrafluoroethyl)-1H-imidazo(4,5-b)pyridine]	0	1BS	2B	3BS	3BS	0	1S	0	0	0	Injury Rating, Cotton ([1]; 1 lbs/acre): 0; Injury Rating, Cotton ([1]; 4 lbs/acre): 0; Injury Rating, Velvet Leaf ([2]; 1 lbs/acre): 0; Injury Rating, Velvet Leaf ([2]; 2 lbs/acre): 1B; Injury Rating, Velvet Leaf ([2]; 4 lbs/acre): 1B; Injury Rating, Velvet Leaf ([2]; 8 lbs/acre): 3B; Injury Rating, Crabgrass ([3]; 1 lbs/acre): 0; Injury Rating, Crabgrass ([3]; 4 lbs/acre): 2BS; Injury Rating, Pigweed ([4]; 1 lbs/acre): 1S; Injury Rating, Pigweed ([4]; 4 lbs/acre): 3BS; Injury Rating, Foxtail ([5]; 1 lbs/acre): 0; Injury Rating, Foxtail ([5]; 4 lbs/acre): 1BS; Injury Rating, Corn ([6]; 1 lbs/acre): 0; Injury Rating, Corn ([6]; 4 lbs/acre): 0; Injury Rating, Soybean ([7]; 1 lbs/acre): 0; Injury Rating, Soybean ([7]; 4 lbs/acre): 1B
On1c(C(F)(F)F)nc2nc(Cl)ccc21 [5-chloro-1-hydroxy-2-(trifluoromethyl)-1H-imidazo(4,5-b)pyridine]	0	3	3	3	3	2	4	0	1	0	–
